Measured values published in EP1743640A1, “Use of substituted pyrazoline compounds for the preparation of paediatric medicaments” (LABORATORIOS DEL DR. ESTEVE, S.A., priority 2005, dated 2007).

What was measured:
CB2-Receptor = biological target: T1, CB2-Receptor (Homo sapiens, UniProt P34972); assay: In-vitro determination of affinity to CB2 receptor (radioligand [3H]-CP55940); assay type: binding
T1 construct: purchased Receptor Biology, Inc
Description: (§1) I. In-vitro determination of affinity to CB1/CB2-Receptors
(§2) The in-vitro determination of the affinity of the substituted pyrazoline compounds to CB1/CB2-Rezeptors is carried out as described in the publication of Ruth A. Ross, Heather C. Brockie et al., "Agonist-inverse agonist characterization at CB1 and CB2 cannabinoid receptors of L-759633, L759656 and AM630", British Journal of Pharmacology, 126, 665-672, (1999), whereby the transfected human CB1 and CB2 receptors of Receptor Biology, Inc. are used. The radioligand used for both receptors is [^3H]-CP55940. The respective parts of the description is hereby incorporated by reference and forms part of the present disclosure.

cannabinoid receptors [1] = assay: Mouse tetrad model, agonistic effect; assay type: in vivo, Male NMRI mice; parameters: key to Agonistic effect D: Sedation: % sedation = mean score (0-3 scale)/3 × 100; Agonistic effect A: Hot-Plate test / Agonistic effect B: Hypothermia / Agonistic effect C: Catalepsy: unit not given here; conditions: 5 mg/kg i.v.
Excerpt: (§3) Substances with affinity for cannabinoid receptors are known to produce a wide range of pharmacological effects. It is also known that intravenous administration of a substance with affinity for cannabinoid receptors in mice produces analgesia , hypothermia, sedation and catalepsy. Individually, none of these effects can be considered as proof that a tested substance has affinity for cannabinoid-receptors, since all of these effects are common for various classes of centrally active agents. However, substances, which show all of these effects, i.e. substances that are active in this so-called tetrad model are considered to have affinity for the cannabinoid receptors. It has further been shown that cannabinoid receptor antagonists are higly effective in blocking the effects of a cannabinoid agonist in the mouse tetrad model.
(§4) The tetrad model is described, for example, in the publication of A. C. Howlett et al, Intemational Union of Pharmacology XXVII. Classification of Cannabinoid Receptors, Pharmacol Rev 54, 161-202 , 2002 and David R. Compton et al., "In-vivo Characterization of a Specific Cannabinoid Receptor Antagonist (SR141716A) :Inhibition of Tetrahydrocannbinol- induced Responses and Apparent Agonist Activity", J. Pharmacol. Exp. Ther. 277 , 2, 586-594, 1996. The corresponding parts of the description are hereby incorporated by reference.
(§5) Male NMRI mice with a weight of 20-30 g (Harlan, Barcelona, Spain) are used in all of the following experiments.
(§6) Before testing in the behavioral procedures given below, mice are acclimatized to the experimental setting. Pre-Treatment control values are determined for analgesia hot plate latency (in seconds), rectal temperature, sedation and catalepsy.
(§7) In order to determine the agonistic activty of the substance to be tested, the mice are injected intravenously with the substance to be tested or the vehicle alone. 15 minutes after injection, latency in hot plate analgesia is measured. Rectal temperature, sedation and catalepsy are measured 20 minutes after injection.
(§8) The hot plate analgesia is determined according to the method described in Woolfe D. et al. "The evaluation of analgesic action of pethidine hydrochloride (Demerol)", J. Pharmacol. Exp. Ther. 80, 300-307,1944. The respective description is hereby incorporated by reference and forms part of the present disclosure.
(§9) The mice are placed on a hot plate (Harvard Analgesimeter) at 55 ± 0.5 °C until they show a painful sensation by licking their paws or jumping and the time for these sensations to occur is recorded. This reading is considered the basal value (B). The maximum time limit the mice are allowed to remain on the hot plate in absence of any painful response is 40 seconds in order to prevent skin damage. This period is called the cut-off time (PC).
(§10) Fifteen minuts after the administration of the substance to be tested, the mice are again placed on the hot plate and the afore described procedure is repeated. This period is called the post-treatment reading (PT).
(§11) The degree of analgesia is calculated from the formula : %MPE of Analgesia = (PT-B)/(PC-B) × 100 [formula]
(§12) Sedation and ataxia is determined according to the method described in Desmet L. K. C. et al. "Anticonvulsive properties of Cinarizine and Flunarizine in Rats and Mice", Arzneim. -Forsch. (Frug Res) 25, 9, 1975. The respective description is hereby incorporated by reference and forms part of the present disclosure.
The chosen scoring system is • 0: no ataxia; • 1: doubful; • 2: obvious calmness and quiet; • 3 pronounced ataxia; prior to as well as after treatment.
The percentage of sedation is determined according to the formula: %of sedation = arithmetic mean/3 × 100 [formula]
Hypothermia is determined according to the method described in David R. Compton et al. "In-vivo Characterization of a Specific Cannabinoid Receptor Antagonist (SR141716A) Inhibition of Tetrahydrocannbinol- induced Responses and Apparent Agonist Activity", J. Pharmacol Exp Ther. 277 , 2, 586-594, 1996. […]

cannabinoid receptors [2] = assay: Mouse tetrad model, antagonistic effect against Win 55212-2; assay type: in vivo, Male NMRI mice; parameters: unit not given here; conditions: 5 mg/kg i.v. prior to Win 55212-2 in a dose of 1,25mg/kg i.v.
Excerpt: as §3, §4, §5, §6, §7
In order to determine the antagonistic activity the identical procedure is used as for the determination of the agonistic effects, but with the difference that the substance to be evaluated for its antagonistic activity is injectected 5 minutes before the intravenous injection of 1.25 mg/kg Win-55,212 a known cannabinoid-receptor agonist.
as §8, §9, §10, §11, §12
The chosen scoring system is • 0: no ataxia; • 1: doubful; • 2: obvious calmness and quiet; • 3 pronounced ataxia; prior to as well as after treatment. […]

CB1-Receptor = biological target: T2, CB1-Receptor (Homo sapiens, UniProt P21554); assay: In-vitro determination of affinity to CB1 receptor (radioligand [3H]-CP55940); assay type: binding
T2 construct: purchased Receptor Biology, Inc
T2 sequence (P21554 whole entry): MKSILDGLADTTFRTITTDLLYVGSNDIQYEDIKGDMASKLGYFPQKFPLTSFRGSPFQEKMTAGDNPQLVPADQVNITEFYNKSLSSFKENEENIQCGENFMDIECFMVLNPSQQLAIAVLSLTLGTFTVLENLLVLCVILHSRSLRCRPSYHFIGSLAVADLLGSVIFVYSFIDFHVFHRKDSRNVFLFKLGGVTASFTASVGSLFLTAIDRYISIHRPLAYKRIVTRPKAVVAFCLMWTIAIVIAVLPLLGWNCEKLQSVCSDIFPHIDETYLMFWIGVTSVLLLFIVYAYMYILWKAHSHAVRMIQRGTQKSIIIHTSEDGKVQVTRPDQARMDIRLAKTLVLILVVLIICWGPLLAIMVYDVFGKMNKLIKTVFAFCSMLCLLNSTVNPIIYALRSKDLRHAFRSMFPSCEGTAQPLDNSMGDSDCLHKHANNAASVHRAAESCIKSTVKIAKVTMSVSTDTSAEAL
Description: as §1, §2

T1 sequence (P34972 whole entry): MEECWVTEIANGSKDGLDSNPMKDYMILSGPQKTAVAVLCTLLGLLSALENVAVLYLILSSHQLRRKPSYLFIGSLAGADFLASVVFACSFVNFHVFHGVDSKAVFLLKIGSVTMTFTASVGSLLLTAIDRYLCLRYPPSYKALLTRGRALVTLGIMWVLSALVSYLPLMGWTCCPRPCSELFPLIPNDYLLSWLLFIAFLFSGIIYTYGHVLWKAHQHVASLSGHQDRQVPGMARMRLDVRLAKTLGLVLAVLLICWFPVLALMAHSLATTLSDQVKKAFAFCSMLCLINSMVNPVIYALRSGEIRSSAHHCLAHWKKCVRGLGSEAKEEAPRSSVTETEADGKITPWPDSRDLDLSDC

O=C(C1=NN(c2ccc(Cl)cc2Cl)C(c2ccc(Cl)cc2)C1)N1CCCCC1 (stereo not shown) [Example 5, (5-(4-Chloro-phenyl)-1-(2,4-dichloro-phenyl)-4,5-dihydro-1 H-pyrazol-3-yl]-piperidin-1-yl-methanone]
Ki (CB2-Receptor): ~1 µM | Agonistic effect A: Hot-Plate test (cannabinoid receptors [1]): 0 | Agonistic effect B: Hypothermia (cannabinoid receptors [1]): 50 | Agonistic effect C: Catalepsy (cannabinoid receptors [1]): 0 | Agonistic effect D: Sedation (cannabinoid receptors [1]): 0 | Antagonistic Effect A: Hot-Plate test (cannabinoid receptors [2]): 50 | Antagonistic Effect B: Hypothermia (cannabinoid receptors [2]): 40 | Antagonistic Effect C: Catalepsy (cannabinoid receptors [2]): 20 | Antagonistic Effect D: Sedation (cannabinoid receptors [2]): 20

O=C(NN1CCCCC1)C1=NN(c2ccc(Cl)cc2Cl)C(c2ccc(Cl)cc2)C1 (stereo not shown) [Example 1, N-piperidinyl-5-(4-chlorophenyl)-1-(2,4-dichlorophenyl)-4,5-dihydro-1H-pyrazole-3-carboxamide]
Ki (CB1-Receptor): < 0.025 µM | Ki (CB2-Receptor): > 1 µM | Agonistic effect A: Hot-Plate test (cannabinoid receptors [1]): 0 | Agonistic effect B: Hypothermia (cannabinoid receptors [1]): 0 | Agonistic effect C: Catalepsy (cannabinoid receptors [1]): 0 | Agonistic effect D: Sedation (cannabinoid receptors [1]): 0 | Antagonistic Effect A: Hot-Plate test (cannabinoid receptors [2]): 74 | Antagonistic Effect B: Hypothermia (cannabinoid receptors [2]): 100 | Antagonistic Effect C: Catalepsy (cannabinoid receptors [2]): 100 | Antagonistic Effect D: Sedation (cannabinoid receptors [2]): 100
